Test [1] concerns the target T1, CAMK4 (Homo sapiens, UniProt Q16566).
T1 construct: purchased DiscoveRx KINOMEscan (Ambit Biosciences)
T1 sequence (Q16566 1-473): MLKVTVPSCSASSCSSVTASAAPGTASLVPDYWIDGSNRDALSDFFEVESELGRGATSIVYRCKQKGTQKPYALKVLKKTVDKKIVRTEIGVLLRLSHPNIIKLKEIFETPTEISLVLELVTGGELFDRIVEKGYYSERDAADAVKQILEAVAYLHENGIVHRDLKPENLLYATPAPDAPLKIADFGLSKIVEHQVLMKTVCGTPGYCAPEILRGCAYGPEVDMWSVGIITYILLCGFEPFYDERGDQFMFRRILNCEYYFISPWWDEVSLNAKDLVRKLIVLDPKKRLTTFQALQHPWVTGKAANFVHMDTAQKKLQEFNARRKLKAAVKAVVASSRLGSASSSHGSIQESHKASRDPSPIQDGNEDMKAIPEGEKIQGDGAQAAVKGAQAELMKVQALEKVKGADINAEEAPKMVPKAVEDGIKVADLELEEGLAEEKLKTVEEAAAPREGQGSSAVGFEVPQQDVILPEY
Further details: method as in earlier work. The following applies: Table S1; cited from earlier work.

Test [2] concerns the target T2, ALK (Homo sapiens, UniProt Q9UM73).
T2 construct: purchased DiscoveRx KINOMEscan (Ambit Biosciences)
As to the kind of experiment: KINOMEscan panel screen. The format is binding. The following applies: read-out: Percent Control(%).

In test [3] the target is T3, ALK(L1196M) (Homo sapiens, UniProt Q9UM73, L1196M).
T3 construct: purchased DiscoveRx KINOMEscan (Ambit Biosciences)
As to the kind of experiment: KINOMEscan panel screen. The following applies: read-out: Percent Control(%). It is filed as binding.

The target of test [4] is T4, CAMK1G (Homo sapiens, UniProt Q96NX5).
T4 construct: purchased DiscoveRx KINOMEscan (Ambit Biosciences)
As to the kind of experiment: KINOMEscan panel screen. The following applies: read-out: Percent Control(%). It is filed as binding.

Test [5] concerns the target T5, CAMK2D (Homo sapiens, UniProt Q13557).
T5 construct: purchased DiscoveRx KINOMEscan (Ambit Biosciences)
As to the kind of experiment: KINOMEscan panel screen. It is filed as binding. The following applies: read-out: Percent Control(%).

The target of test [6] is T6, CAMK2G (Homo sapiens, UniProt Q13555).
T6 construct: purchased DiscoveRx KINOMEscan (Ambit Biosciences)
As to the kind of experiment: KINOMEscan panel screen. The format is binding. The following applies: read-out: Percent Control(%).

In test [7] the target is T7, CSNK1A1 (Homo sapiens, UniProt P48729).
T7 construct: purchased DiscoveRx KINOMEscan (Ambit Biosciences)
The test is described as follows: KINOMEscan panel screen. It is filed as binding. The following applies: read-out: Percent Control(%).

Test [8] concerns the target T8, CSNK1G3 (Homo sapiens, UniProt Q9Y6M4).
T8 construct: purchased DiscoveRx KINOMEscan (Ambit Biosciences)
As to the kind of experiment: KINOMEscan panel screen. The format is binding. The following applies: read-out: Percent Control(%).

Test [9] has as its target T9, DYRK1B (Homo sapiens, UniProt Q9Y463).
T9 construct: purchased DiscoveRx KINOMEscan (Ambit Biosciences)
The test is described as follows: KINOMEscan panel screen. The format is binding. The following applies: read-out: Percent Control(%).

Test [10] concerns the target T10, EGFR(T790M) (Homo sapiens, UniProt P00533, T790M).
T10 construct: purchased DiscoveRx KINOMEscan (Ambit Biosciences)
As to the kind of experiment: KINOMEscan panel screen. It is filed as binding. The following applies: read-out: Percent Control(%).

Test [11] deals with T11, EPHA6 (Homo sapiens, UniProt Q9UF33).
T11 construct: purchased DiscoveRx KINOMEscan (Ambit Biosciences)
The test is described as follows: KINOMEscan panel screen. It is filed as binding. The following applies: read-out: Percent Control(%).

Test [12] deals with T12, ERBB3 (Homo sapiens, UniProt P21860).
T12 construct: purchased DiscoveRx KINOMEscan (Ambit Biosciences)
As to the kind of experiment: KINOMEscan panel screen. The format is binding. The following applies: read-out: Percent Control(%).

Test [13] deals with T13, HIPK4 (Homo sapiens, UniProt Q8NE63).
T13 construct: purchased DiscoveRx KINOMEscan (Ambit Biosciences)
As to the kind of experiment: KINOMEscan panel screen. The format is binding. The following applies: read-out: Percent Control(%).

For test [14], the target named is T14, MAP3K15 (Homo sapiens, UniProt Q6ZN16).
T14 construct: purchased DiscoveRx KINOMEscan (Ambit Biosciences)
As to the kind of experiment: KINOMEscan panel screen. The following applies: read-out: Percent Control(%). It is filed as binding.

Test [15] addresses T15, MAP4K2 (Homo sapiens, UniProt Q12851).
T15 construct: purchased DiscoveRx KINOMEscan (Ambit Biosciences)
As to the kind of experiment: KINOMEscan panel screen. The format is binding. The following applies: read-out: Percent Control(%).

Test [16] concerns the target T16, MST3 (Homo sapiens, UniProt Q9Y6E0).
T16 construct: purchased DiscoveRx KINOMEscan (Ambit Biosciences)
As to the kind of experiment: KINOMEscan panel screen. The following applies: read-out: Percent Control(%). The format is binding.

Test [17] concerns the target T17, MUSK (Homo sapiens, UniProt O15146).
T17 construct: purchased DiscoveRx KINOMEscan (Ambit Biosciences)
The test is described as follows: KINOMEscan panel screen. The format is binding. The following applies: read-out: Percent Control(%).

Test [18] addresses T18, p38-beta (Homo sapiens, UniProt Q15759).
T18 construct: purchased DiscoveRx KINOMEscan (Ambit Biosciences)
As to the kind of experiment: KINOMEscan panel screen. It is filed as binding. The following applies: read-out: Percent Control(%).

Test [19] addresses T19, PDGFRB (Homo sapiens, UniProt P09619).
T19 construct: purchased DiscoveRx KINOMEscan (Ambit Biosciences)
The test is described as follows: KINOMEscan panel screen. The format is binding. The following applies: read-out: Percent Control(%).

In test [20] the target is T20, PIK3CA(H1047L) (Homo sapiens, UniProt P42336, H1047L).
T20 construct: purchased DiscoveRx KINOMEscan (Ambit Biosciences)
The test is described as follows: KINOMEscan panel screen. The format is binding. The following applies: read-out: Percent Control(%).

In test [21] the target is T21, PKAC-alpha (Homo sapiens, UniProt P17612).
T21 construct: purchased DiscoveRx KINOMEscan (Ambit Biosciences)
The test is described as follows: KINOMEscan panel screen. It is filed as binding. The following applies: read-out: Percent Control(%).

Test [22] deals with T22, PLK4 (Homo sapiens, UniProt O00444).
T22 construct: purchased DiscoveRx KINOMEscan (Ambit Biosciences)
The test is described as follows: KINOMEscan panel screen. The format is binding. The following applies: read-out: Percent Control(%).

The target in test [23] is T23, PRKD2 (Homo sapiens, UniProt Q9BZL6).
T23 construct: purchased DiscoveRx KINOMEscan (Ambit Biosciences)
As to the kind of experiment: KINOMEscan panel screen. The format is binding. The following applies: read-out: Percent Control(%).

The target of test [24] is T24, PRKG2 (Homo sapiens, UniProt Q13237).
T24 construct: purchased DiscoveRx KINOMEscan (Ambit Biosciences)
As to the kind of experiment: KINOMEscan panel screen. It is filed as binding. The following applies: read-out: Percent Control(%).

For test [25], the target named is T25, RET(V804M) (Homo sapiens, UniProt P07949, V804M).
T25 construct: purchased DiscoveRx KINOMEscan (Ambit Biosciences)
As to the kind of experiment: KINOMEscan panel screen. It is filed as binding. The following applies: read-out: Percent Control(%).

The target in test [26] is T26, ROS1 (Homo sapiens, UniProt P08922).
T26 construct: purchased DiscoveRx KINOMEscan (Ambit Biosciences)
As to the kind of experiment: KINOMEscan panel screen. It is filed as binding. The following applies: read-out: Percent Control(%).

Test [27] concerns the target T27, RSK4(Kin.Dom.2-C-terminal) (Homo sapiens, UniProt Q9UK32).
T27 construct: RSK4(Kin.Dom.2-C-terminal); purchased DiscoveRx KINOMEscan (Ambit Biosciences)
As to the kind of experiment: KINOMEscan panel screen. It is filed as binding. The following applies: read-out: Percent Control(%).

Test [28] concerns the target T28, SGK (Homo sapiens, UniProt O00141).
T28 construct: purchased DiscoveRx KINOMEscan (Ambit Biosciences)
The test is described as follows: KINOMEscan panel screen. The format is binding. The following applies: read-out: Percent Control(%).

The target of test [29] is T29, TIE1 (Homo sapiens, UniProt P35590).
T29 construct: purchased DiscoveRx KINOMEscan (Ambit Biosciences)
As to the kind of experiment: KINOMEscan panel screen. The format is binding. The following applies: read-out: Percent Control(%).

Test [30] addresses T30, TLK2 (Homo sapiens, UniProt Q86UE8).
T30 construct: purchased DiscoveRx KINOMEscan (Ambit Biosciences)
As to the kind of experiment: KINOMEscan panel screen. The format is binding. The following applies: read-out: Percent Control(%).

Test [31] addresses T31, WNK1 (Homo sapiens, UniProt Q9H4A3).
T31 construct: purchased DiscoveRx KINOMEscan (Ambit Biosciences)
The test is described as follows: KINOMEscan panel screen. The format is binding. The following applies: read-out: Percent Control(%).

For test [32], the target named is T32, ZAK (Homo sapiens, UniProt Q9NYL2).
T32 construct: purchased DiscoveRx KINOMEscan (Ambit Biosciences)
The test is described as follows: KINOMEscan panel screen. The following applies: read-out: Percent Control(%). The format is binding.

Test [33] relates to wnt8.1 RNA injected zebrafish embryos. The test is described as follows: Zebrafish wnt8.1 rescue experiment. It is filed as in vivo. The following applies: 10 μM after microinjection of wnt8.1 RNA.
For test [34], the system named is H1975. As to the kind of experiment: MTT cell viability assay. The following applies: Homo sapiens, NCI-H1975, 72 h. (Tetrazolium dyes change colour on reduction, which living cells bring about.)
Test [35] deals with FLT3-D835H (Homo sapiens, UniProt P36888, D835H). As to the kind of experiment: KINOMEscan panel screen. The following applies: read-out: Percent Control(%). It is filed as binding. Also on record: purchased DiscoveRx KINOMEscan (Ambit Biosciences).

Where only a bound is given, the exact number is not on record here.

A word on the IC50: it is the concentration that inhibits the measured activity by half.

T20 sequence (P42336 whole entry H1047L): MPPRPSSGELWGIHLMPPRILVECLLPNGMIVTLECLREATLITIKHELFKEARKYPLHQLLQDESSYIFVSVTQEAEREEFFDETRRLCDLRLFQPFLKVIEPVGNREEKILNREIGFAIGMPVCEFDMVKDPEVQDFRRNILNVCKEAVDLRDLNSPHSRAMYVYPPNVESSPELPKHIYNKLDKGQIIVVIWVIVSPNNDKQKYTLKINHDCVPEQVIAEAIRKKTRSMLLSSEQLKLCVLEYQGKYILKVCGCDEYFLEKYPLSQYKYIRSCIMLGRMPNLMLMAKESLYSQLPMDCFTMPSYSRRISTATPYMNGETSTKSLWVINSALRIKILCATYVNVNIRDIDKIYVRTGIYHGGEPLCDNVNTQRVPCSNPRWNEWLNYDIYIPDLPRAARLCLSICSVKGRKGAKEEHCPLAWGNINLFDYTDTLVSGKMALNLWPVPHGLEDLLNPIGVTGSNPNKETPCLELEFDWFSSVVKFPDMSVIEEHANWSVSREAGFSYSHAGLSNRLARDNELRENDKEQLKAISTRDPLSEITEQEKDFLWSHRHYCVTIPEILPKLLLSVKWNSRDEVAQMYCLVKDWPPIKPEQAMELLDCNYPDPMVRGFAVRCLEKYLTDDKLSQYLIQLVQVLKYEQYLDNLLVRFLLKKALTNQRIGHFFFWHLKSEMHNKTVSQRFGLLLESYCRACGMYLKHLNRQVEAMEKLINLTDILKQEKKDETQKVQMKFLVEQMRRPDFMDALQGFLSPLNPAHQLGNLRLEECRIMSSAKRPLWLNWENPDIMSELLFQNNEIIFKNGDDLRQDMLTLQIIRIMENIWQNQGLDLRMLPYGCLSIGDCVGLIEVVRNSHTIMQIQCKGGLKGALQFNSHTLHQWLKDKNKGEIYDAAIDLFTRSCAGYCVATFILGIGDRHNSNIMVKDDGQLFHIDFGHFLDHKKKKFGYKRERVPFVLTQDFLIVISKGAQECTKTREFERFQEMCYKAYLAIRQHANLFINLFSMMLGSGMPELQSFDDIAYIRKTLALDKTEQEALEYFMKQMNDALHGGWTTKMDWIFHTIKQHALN
T17 sequence (O15146 24-869): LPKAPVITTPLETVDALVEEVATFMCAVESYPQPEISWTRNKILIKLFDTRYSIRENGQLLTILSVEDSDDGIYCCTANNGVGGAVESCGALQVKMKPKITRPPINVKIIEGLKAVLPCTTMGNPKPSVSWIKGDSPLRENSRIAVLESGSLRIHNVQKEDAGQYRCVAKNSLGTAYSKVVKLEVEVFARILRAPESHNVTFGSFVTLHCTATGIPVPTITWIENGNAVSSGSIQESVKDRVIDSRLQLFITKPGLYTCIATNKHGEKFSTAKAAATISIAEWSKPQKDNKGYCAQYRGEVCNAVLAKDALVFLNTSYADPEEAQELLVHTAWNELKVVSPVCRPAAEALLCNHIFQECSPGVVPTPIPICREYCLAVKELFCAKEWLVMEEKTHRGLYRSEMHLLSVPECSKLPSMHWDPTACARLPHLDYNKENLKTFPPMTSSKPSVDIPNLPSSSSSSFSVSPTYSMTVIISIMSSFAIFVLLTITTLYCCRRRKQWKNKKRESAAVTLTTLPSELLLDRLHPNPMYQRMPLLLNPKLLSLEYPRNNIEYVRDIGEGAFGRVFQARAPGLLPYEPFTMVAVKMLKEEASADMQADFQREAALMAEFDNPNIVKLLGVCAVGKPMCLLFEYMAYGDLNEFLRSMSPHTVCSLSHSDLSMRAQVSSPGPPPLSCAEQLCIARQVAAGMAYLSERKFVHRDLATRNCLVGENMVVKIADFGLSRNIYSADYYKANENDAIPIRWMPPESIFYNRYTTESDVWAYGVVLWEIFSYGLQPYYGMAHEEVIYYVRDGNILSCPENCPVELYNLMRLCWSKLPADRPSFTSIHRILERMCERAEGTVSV
T25 sequence (P07949 29-1114 V804M): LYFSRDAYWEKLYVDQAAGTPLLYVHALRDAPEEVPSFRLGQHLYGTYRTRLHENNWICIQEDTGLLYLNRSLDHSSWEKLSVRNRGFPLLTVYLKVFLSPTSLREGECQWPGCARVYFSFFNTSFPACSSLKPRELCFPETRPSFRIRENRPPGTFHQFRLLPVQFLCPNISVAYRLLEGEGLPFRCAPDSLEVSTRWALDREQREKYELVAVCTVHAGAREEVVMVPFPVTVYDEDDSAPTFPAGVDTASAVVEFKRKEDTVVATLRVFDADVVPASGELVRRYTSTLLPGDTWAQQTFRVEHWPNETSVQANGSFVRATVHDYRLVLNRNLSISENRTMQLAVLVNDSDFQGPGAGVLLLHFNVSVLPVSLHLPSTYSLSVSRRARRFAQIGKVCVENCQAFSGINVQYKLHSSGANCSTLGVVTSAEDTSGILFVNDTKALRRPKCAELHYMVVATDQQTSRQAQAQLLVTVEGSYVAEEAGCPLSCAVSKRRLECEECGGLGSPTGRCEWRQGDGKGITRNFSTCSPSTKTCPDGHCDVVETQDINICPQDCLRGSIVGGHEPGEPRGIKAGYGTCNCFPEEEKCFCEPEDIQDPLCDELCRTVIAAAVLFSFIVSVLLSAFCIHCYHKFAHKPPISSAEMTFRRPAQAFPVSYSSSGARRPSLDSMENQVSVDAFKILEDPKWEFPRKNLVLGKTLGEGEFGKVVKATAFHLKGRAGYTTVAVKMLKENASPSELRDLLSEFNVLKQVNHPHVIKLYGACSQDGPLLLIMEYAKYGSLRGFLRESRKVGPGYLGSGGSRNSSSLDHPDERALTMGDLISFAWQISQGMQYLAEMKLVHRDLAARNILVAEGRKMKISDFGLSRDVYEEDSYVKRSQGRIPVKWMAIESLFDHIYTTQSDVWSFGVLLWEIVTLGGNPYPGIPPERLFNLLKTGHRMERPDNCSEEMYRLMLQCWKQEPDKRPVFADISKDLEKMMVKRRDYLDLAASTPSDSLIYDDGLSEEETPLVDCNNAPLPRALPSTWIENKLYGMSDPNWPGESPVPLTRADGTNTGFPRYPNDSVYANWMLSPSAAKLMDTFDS
T18 sequence (Q15759 whole entry): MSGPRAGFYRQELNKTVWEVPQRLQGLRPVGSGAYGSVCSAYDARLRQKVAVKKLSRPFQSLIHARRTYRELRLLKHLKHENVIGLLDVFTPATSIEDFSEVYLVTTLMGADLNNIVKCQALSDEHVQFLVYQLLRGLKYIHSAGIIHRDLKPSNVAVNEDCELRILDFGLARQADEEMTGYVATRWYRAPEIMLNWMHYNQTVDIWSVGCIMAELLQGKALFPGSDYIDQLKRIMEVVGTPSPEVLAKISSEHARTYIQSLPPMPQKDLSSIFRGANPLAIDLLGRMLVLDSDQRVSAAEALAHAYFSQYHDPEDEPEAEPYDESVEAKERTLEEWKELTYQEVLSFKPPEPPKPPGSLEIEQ
T32 sequence (Q9NYL2 whole entry): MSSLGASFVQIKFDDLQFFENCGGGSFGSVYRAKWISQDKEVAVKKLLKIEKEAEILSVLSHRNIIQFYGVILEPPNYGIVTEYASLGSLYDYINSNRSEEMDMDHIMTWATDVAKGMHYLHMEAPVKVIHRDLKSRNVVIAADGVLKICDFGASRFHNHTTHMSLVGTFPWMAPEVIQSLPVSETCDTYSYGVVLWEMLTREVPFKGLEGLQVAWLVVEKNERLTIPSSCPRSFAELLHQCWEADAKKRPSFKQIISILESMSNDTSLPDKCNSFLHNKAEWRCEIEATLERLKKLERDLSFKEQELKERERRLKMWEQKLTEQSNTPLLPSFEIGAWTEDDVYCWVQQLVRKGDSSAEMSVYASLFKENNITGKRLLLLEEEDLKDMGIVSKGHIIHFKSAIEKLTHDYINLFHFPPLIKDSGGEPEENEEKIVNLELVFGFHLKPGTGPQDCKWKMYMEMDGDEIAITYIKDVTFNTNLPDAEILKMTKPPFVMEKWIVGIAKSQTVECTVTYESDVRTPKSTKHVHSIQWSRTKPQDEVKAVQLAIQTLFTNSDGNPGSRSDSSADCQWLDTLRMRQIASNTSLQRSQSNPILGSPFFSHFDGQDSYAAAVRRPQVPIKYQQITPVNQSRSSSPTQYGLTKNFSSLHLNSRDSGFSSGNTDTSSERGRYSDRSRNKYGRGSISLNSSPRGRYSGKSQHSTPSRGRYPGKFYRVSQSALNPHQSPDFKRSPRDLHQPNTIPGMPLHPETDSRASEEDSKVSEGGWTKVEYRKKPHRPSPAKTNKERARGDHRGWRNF
T13 sequence (Q8NE63 whole entry): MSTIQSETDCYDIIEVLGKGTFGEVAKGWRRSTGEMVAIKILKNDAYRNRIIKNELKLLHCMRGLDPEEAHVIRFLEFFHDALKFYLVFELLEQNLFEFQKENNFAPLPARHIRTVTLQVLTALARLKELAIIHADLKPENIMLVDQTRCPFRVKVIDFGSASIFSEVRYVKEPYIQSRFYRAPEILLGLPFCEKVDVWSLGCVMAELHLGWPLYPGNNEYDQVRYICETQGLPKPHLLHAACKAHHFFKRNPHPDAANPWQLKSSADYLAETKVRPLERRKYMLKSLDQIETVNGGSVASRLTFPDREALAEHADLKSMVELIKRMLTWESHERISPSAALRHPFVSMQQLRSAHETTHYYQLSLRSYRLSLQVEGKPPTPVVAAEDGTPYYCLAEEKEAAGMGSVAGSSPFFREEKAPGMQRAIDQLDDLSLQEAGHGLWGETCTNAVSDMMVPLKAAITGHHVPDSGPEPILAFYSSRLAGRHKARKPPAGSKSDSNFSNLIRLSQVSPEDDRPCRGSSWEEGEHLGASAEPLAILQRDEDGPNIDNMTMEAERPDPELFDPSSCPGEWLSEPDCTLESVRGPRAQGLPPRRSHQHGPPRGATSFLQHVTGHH
T27 sequence (Q9UK32 426-683 limits assumed): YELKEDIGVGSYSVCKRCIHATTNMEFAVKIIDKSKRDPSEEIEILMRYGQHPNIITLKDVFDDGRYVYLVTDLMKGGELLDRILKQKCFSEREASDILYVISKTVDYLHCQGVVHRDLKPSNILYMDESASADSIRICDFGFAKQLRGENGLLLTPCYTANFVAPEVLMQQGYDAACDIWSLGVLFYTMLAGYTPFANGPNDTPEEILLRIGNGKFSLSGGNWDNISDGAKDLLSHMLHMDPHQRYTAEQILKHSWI

`O=C(Nc1ccc(Oc2ncnc3[nH]ncc23)cc1)Nc1ccc(Cl)c(C(F)(F)F)c1` [Compound 1, 1-(4-(1H-pyrazolo[3,4-d]pyrimidin-4-yloxy)phenyl)-3-(4-chloro-3-(trifluoromethyl)phenyl)urea]: the half-maximal inhibitory concentration (IC50) in test [1] was greater than 10 µM.

With `CC(C)(C)c1cc(NC(=O)Nc2ccc(Oc3ncnc4[nH]ncc34)c(F)c2)no1` [SKLB-677, 1-(4-(1H-pyrazolo[3,4-d]pyrimidin-4-yloxy)-3-fluorophenyl)-3-(5-tert-butylisoxazol-3-yl)urea], the remaining binding at 10 µM in test [2] was found to be 4.8%; in [3], 71%; in test [4], 48%; in test [5] it was 100%; in [6], 66%; in test [7] it was 100%. Further, the remaining binding at 10 µM in test [8] is 70%; in test [9], 41%; in test [10], 74%; in [11], 0%; in test [12] it was 98%; in test [13], 0.45%. Further, the remaining binding at 10 µM in test [14] was 100%; in test [15], 28%; in [16], 46%; in test [17] it was 0%; in [18], 0.2%; in test [19], 0%. Moreover, the remaining binding at 10 µM in test [20] stood at 84%; in test [21] it was 31%; in test [22] it was 68%; in test [23], 28%; in test [24], 100%; in [25], 1.9%. Further, the remaining binding at 10 µM in [26] worked out at 0.1%; in [27], 72%; in test [28] it was 29%; in test [29] it was 8.7%; in test [30] it was 64%; in test [31], 100%. The results for the remaining binding at 10 µM in test [32] and in [35] were 1.5% and 0%, respectively. In test [33], the embryos unaffected worked out at 65%. For the same compound, in [33], the “embryos with mild or moderate posteriorized phenotypes” value turned out to be 35%. In test [34], this compound registered an IC50 greater than 10 µM.

The values above are taken from publication PMC4620497 (Scientific Reports, 2015).
